# Experimental data reported in patent publication US8445006B2, “Biomolecular coating for implants” (Georgia Tech Research Corporation, priority 2006, dated 2013).
# Tests used:
# [1] = tested on: HFN7.1 monoclonal antibody; assay: ELISA with HFN7.1 monoclonal antibody; assay type: binding; details: passively adsorbed ligands, various coating concentrations
# Description: An ELISA was used to probe for the biological activity of the FNIII7-10 fragment compared to pFN. FNIII7-10 or pFN was adsorbed onto either uncoated or Neutravidin-coated (100 μg/ml) 96-well black U-well Dynex plates at various concentrations for 30 min. Following incubation in blocking buffer (0.25% BSA, 0.1 M EDTA, 2.5% Tween-20, 0.00125% NaN3), HFN7.1 antibody (0.6 μg/ml in blocking buffer) was added for 1 h at 37° C., and, after washing with blocking buffer, surfaces were incubated in alkaline phosphatase-conjugated anti-mouse IgG (0.6 μg/ml) for 1 h at 37° C. Washed surfaces were exposed to 4-methylumbelliferyl phosphate (25 mg/ml in 10 mM diethanolamine, pH 9.5). The resulting fluorescence was quantified using an HTS 7000 Plus plate reader (Perkin Elmer, Foster City, Calif.) at 360 nm excitation and 465 nm emission.
# MC3T3-E1 cells = assay: Cell proliferation rate by BrdU incorporation; assay type: cell-based, murine; details: vs RGD-tethered surfaces at low and high peptide surface densities
# Description: Cells were seeded on surfaces in 10% serum for 16 h, and BrdU (3.1 μg/ml) was added for the last 4 h. After washing with DPBS, samples were fixed in 70% cold ethanol for 10 min, denatured in 4 M HC1 for 20 min, neutralized in 50 mM NaCl in 100 mM Tris-HCI (pH 7.4), washed, and blocked with 5% FBS+1% heat-denatured BSA. Cultures were incubated in anti-BrdU antibody (1:1000) and AlexaFluor488-conjugated anti-mouse IgG (1:200). Nuclei were counter-stained with Hoechst dye (1:10,000). Fluorescent images were used to quantify the number of cells positive for BrdU relative to total cell nuclei using an in-house image analysis routine. Ten representative fields were analyzed per well with multiple wells for each surface condition.
# α5β1 integrin = assay: Integrin binding by cross-linking/extraction/reversal technique; assay type: cell-based, rat; details: equimolar tethered brushes; vs RGD-tethered brushes and serum-exposed titanium
# Description: (§1) In vitro evaluation of these engineered titanium surfaces was performed using primary rat bone marrow stromal cells since this heterogeneous population contains osteoprogenitors, and human bone marrow stromal cells are currently used in clinical applications. Cell adhesion was examined using a centrifugation assay that applies a controlled detachment force. To allow direct comparisons between ligand-tethered surfaces, an equimolar ligand density of 0.9 pmol/cm^2 was used; this value represents the highest ligand density that could be ascribed for both surfaces to be equimolar. […] As a complementary test of integrin specificity, integrin binding was quantified using a biochemical cross-linking/extraction/reversal technique.
# [2] = tested on: bone marrow stromal cells; assay: Centrifugation cell adhesion assay on titanium surfaces; assay type: cell-based, rat; details: for stromal cell adhesion (adherent cell fraction): 1 h serum-free, centrifugation 12 g, no antibody, adsorbed on Ti at 20 μg/ml
# Description: (§2) Primary bone marrow stromal cells were harvested from the femora of young adult male Wistar rats in accordance with an IACUC-approved protocol. After excision, hindleg femora and tibiae were cleared of soft tissue and rinsed in growth medium (α-minimal essential medium supplemented with 10% fetal bovine serum, 1% penicillin-streptomycin, and 0.3 μg/ml amphotericin B). The ends of the long bones were then removed and the marrow space was flushed with culture medium (3-5 ml), using a syringe with an 18-gauge needle. Marrow isolates were pooled, centrifuged, resuspended in growth medium, and seeded for adhesion-dependent selection on tissue culture polystyrene dishes. Non-adherent hematopoietic cells were removed during subsequent medium exchanges, which occurred every other day. Cells were subcultured every two days according to standard techniques. For in vitro osteogenic assays, cells were seeded at 10,000 cells/cm^2 in growth medium. After 24 h, cultures were maintained in osteogenic medium consisting of growth medium supplemented with 50 μg/ml L-ascorbic acid and 3 mM sodium β-glycerophosphate.
# The peptide […](GPP)5GFOGER(GPP)5GPC (SEQ ID NO:1) [O=hydroxyproline] was prepared by the Emory University Microchemical Facility using solid phase t-Boc synthesis. Peptide was supplied in the purified form as a trifluoroacetic acid (TFA) salt and reconstituted at a stock concentration of 10 mg/ml in 0.1% TFA. For the in vitro assays, glass chamber slides (16-well Lab-Tek Chamber Slides, Nalge Nunc) or tissue culture-treated polystyrene dishes were coated with 300 Å of pure titanium using an electron beam evaporator at a chamber base pressure between 1-2×10^−6 torr with a deposition rate of 1.5 Å/second. The GFOGER peptide (SEQ ID NO:1) was diluted to 20 μg/ml in Dulbecco's phosphate-buffered saline (PBS) and incubated on the titanium surfaces for 1 h at 22° C.
# Cell adhesion to functionalized and untreated titanium surfaces was measured using a centrifugation assay that applies controlled detachment forces. Titanium-coated glass chamber slide wells were reassembled using a silicone-based adhesive and coated with 20 μg/ml GFOGER peptide (SEQ ID NO:1) or 20 μg/ml GRGDSPC (SEQ ID NO:3) peptide (BACHEM). Control titanium slides were coated with 10% FBS (to model serum protein adsorption) or blocking buffer (5% non-fat dry milk in PBS to produce a non adhesive support). […] Initial fluorescence intensity was measured to quantify the number of adherent cells prior to application of centrifugal force. […] After centrifugation, media was exchanged and fluorescence intensity was read to measure remaining adherent cells. For each well, adherent cell fraction was calculated as the ratio of post-spin to pre-spin fluorescence readings. […]
# [3] = tested on: bone marrow stromal cells; assay: Calcium incorporation (matrix mineralization) assay; assay type: cell-based, rat; details: 14 days in culture; vs untreated titanium
# Description: as §2
# Calcium content was determined by dissolving mineralized deposits with 1 N acetic acid overnight. […] The absorbance of the resulting samples was measured at 650 nm and compared to a linear standard curve of CaCl2 in 1 N acetic acid.
# αvβ3 integrin = assay: Integrin binding by cross-linking/extraction/reversal technique; assay type: cell-based, rat; details: equimolar tethered brushes; vs FNIII7-10 support
# Description: as §1
Substance,HFN7.1 binding (biological activity) [1],cell proliferation rate (BrdU incorporation) (MC3T3-E1 cells),bound α5β1 integrin (α5β1 integrin),cell adhesion with blocking anti-α2 antibody ([2]; 20 μg/ml anti-rat α2 antibody),cell adhesion with function-perturbing anti-αv antibody ([2]; 20 μg/ml anti-rat αv antibody),stromal cell adhesion (adherent cell fraction) [2],calcium-based mineral deposition [3],bound αvβ3 integrin (αvβ3 integrin)
FNIII7-10: monobiotinylated recombinant fibronectin fragment spanning the 7-10th type III repeats of fibronectin; α5β1 integrin ligand,equivalent functional activity,two-fold increase,significantly higher levels of bound α5β1 integrin,–,–,–,–,–
GGYGGGPC(GPP)5GFOGER(GPP)5GPC [GFOGER peptide],–,–,–,completely eliminated cell adhesion,had no effect on adhesion,greater stromal cell adhesion,three-fold enhancement,–
"GRGDSPC [RGD peptide, linear RGD oligopeptide purchased from BACHEM; primarily supports αvβ3-mediated adhesion, reference compound]",–,–,–,–,–,equivalent to background levels,–,higher levels of bound αvμ3
